Earlier results in US20110117175A1, “SWEET ANALGESIC FOR USE IN MEDICAL PROCEDURES OR TREATMENTS” (priority 2009, published 2011).

Legend:
[1] = system: patients older than infants
[2] = minimal amount of sugar used
[3] = 1 to 2 drops on tongue or pacifier

OC[C@H]1O[C@@](CO)(O[C@H]2O[C@H](CO)[C@@H](O)[C@H](O)[C@H]2O)[C@@H](O)[C@@H]1O [sucrose]
use as an analgesic ([1]; adult patients (studies of adult woman)): ineffective | pain relief ([1]; patients older than infants): unsuccessful | duration of infant or neonate response (infant or neonate; [3]): up to 10 minutes | time to infant or neonate response (infant or neonate; [3]): up to 10 seconds | pain response (infant or neonate; infant or neonate, given prior to a painful procedure): decreases the pain response | blood glucose levels [2]: no increase
